Legend:
[1] = test system: MDA-MB-436 tumors; assay: In vivo efficacy, orthotopic TNBC model, standard setting; conditions: 5 mg/kg equivalent dosage
Procedure: For the in vivo efficacy studies, orthotopic TNBC tumors (MDA-MB-436 or MDA-MB-231) were established in 6-8 weeks old female nude mice as described above. Tumors were grown to reach 100 mm^3 for standard setting treatment or 500 mm^3 for late-stage treatment. […] Tumor growth was monitored weekly using caliper. At the endpoint, animals were euthanized with CO2 and orthotopic tumors were excised to measure their mass.

[2] = target: intercellular adhesion molecule 1 (ICAM1) from Homo sapiens (Homo sapiens) (UniProt P05362); assay: cell-based or functional assay
[3] = test system: refractory TNBC; conditions: refractory TNBC patients; cited from earlier work
[4] = test system: MDA-MB-231 cells; conditions: reported in literature; cited from earlier work

intercellular adhesion molecule 1 (ICAM1) from Homo sapiens (Homo sapiens), sequence (P05362 28-532 limits assumed): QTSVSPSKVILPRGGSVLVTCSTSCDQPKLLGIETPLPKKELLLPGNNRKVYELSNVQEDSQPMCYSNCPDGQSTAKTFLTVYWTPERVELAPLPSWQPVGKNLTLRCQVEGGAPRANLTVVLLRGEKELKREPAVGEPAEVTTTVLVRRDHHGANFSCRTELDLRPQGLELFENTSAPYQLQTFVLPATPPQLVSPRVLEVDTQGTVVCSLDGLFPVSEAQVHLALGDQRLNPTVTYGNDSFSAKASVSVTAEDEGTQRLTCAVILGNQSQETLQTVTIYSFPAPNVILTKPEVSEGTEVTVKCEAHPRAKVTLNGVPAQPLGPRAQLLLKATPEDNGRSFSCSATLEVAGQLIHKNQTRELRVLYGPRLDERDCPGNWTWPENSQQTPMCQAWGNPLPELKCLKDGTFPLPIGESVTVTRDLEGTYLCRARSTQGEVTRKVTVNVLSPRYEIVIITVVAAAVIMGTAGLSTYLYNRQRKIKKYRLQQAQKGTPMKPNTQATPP

For `COc1cccc2c1C(=O)c1c(O)c3c(c(O)c1C2=O)C[C@@](O)(C(=O)CO)C[C@@H]3O[C@H]1C[C@H](N)[C@H](O)[C@H](C)O1` [free Dox, Doxorubicin], the “Anti-tumor efficacy” value [1] was “very limited efficacy”.

Work on “Phycoerythrin (PE)-conjugated anti-human ICAM1 antibody (Clone: HCD54)” yielded a cellular internalization rate in three TNBC cell lines relative to MCF10A cells (imaging flow cytometry) [2] of 42 to 109 fold and a cellular internalization rate in three TNBC cell lines relative to non-targeting IgG (imaging flow cytometry) [2] of 21 to 129 fold.

For sacituzumab govitecan, the Median progression-free survival [3] is given as 5.5 months, the Response rate [3] is given as about 33% and the “Resistance of MDA-MB-231 cells” value [4] is given as “resistant”.
